Test results reported in patent publication US11802285B2, “Cytotoxic T cell response modifiers” (DEUTSCHES KREBSFORSCHUNGSZENTRUM STIFTUNG DES ÖFFENTLICHEN …, priority 2013, dated 2023).

Test system: MCF7 breast cancer cells
Assay: Luc-CTL assay (luciferase-based readout of CTL-mediated tumor cell lysis, with viability control without CTLs)
Conditions: for T cell mediated lysis of luciferase transfected MCF7 breast cancer target cells (reduction of luciferase activity): co-culture with survivin specific CTL clone, deconvoluted siRNA pool (FIG. 5A, 10A); for viability of luciferase transfected MCF7 breast cancer cells: in the absence of T cells (FIG. 5B, 10B)
Source text: In order to comprehensively identify immune checkpoint regulators in an unbiased manner, we harnessed a previously described approach to measure tumor-specific T-cell cytotoxicity which is based on quantifying residual cell-associated luciferase expression following exposure of Luc-expressing cancer cells with CTLs (Brown et al., 2005). We adapted and extended aforementioned approach for high-throughput RNAi screening purposes and termed it ‘Luc-CTL’ assay. Briefly, the screening experiment was set up as follows: In total, three RNAi screens were performed in duplicate and reverse transfection of cells with siRNA pools was performed by delivering 15 μl of RPMI (Invitrogen) containing 0.05 μl of RNAiMAX (Invitrogen). After 30 min of incubation at room temperature, 3000 MCF7 cells (screen 1: MCF7 stably expressing luciferase, screen 2 and 3: wild-type MCF7 cells) in 30 μl of DMEM medium (Invitrogen) supplemented with 10% FBS (Invitrogen) were added to the siRNA transfection mix. Plates were then incubated at 37° C., 5% CO2. 24 h later, cells were either transiently transfected with a luciferase expression plasmid (screen 2) using TransIT-LT1 transfection reagent (Mirius Bio LLC, Madison, USA) according to the manufacturer's instructions or not (screen 1 and screen 3). 72 h post siRNA transfection cancer cells were either challenged with CTLs and anti-CD3×anti-EpCAM bi-specific antibody (screen 1 and screen 2; condition with addition of CTLs) or not (screen 1 and screen 2; condition without addition of CTLs and screen 3). […]
Plate reader data from RNAi screens were statistically analyzed using the cellHTS2 package in R/Bioconductor (Boutros et al., 2006). […] For screen 1 and screen 2, scores from both conditions, i.e. addition of CTLs and without addition of CTLs, were further quantile normalized against each other using the aroma.light package in R. Differential scores were calculated by subtracting quantile normalized scores without addition of CTLs from scores derived with addition of CTLs. In order to robustly identify genes that positively modulate CTL mediated cytotoxicity and to avoid biases potentially introduced by employing CTLs from different donors and employing genetically engineered as well as unmodified MCF7 cells, the 150 top-ranking genes as evaluated by the differential score were extracted for the independent screens 1 and 2 and the overlap between candidate lists was determined. […] Thereby, siRNAs generally affecting cell viability, as determined by intracellular ATP levels, could be excluded.
In order to identify tumor-associated genes that inhibit cell killing by cytotoxic T lymphocytes (CTL), we adapted a luciferase-based readout assay, henceforth referred to as Luc-CTL assay (FIG. 1A). […]

With “TAS2R3 siRNA s3: TAS2R3 siRNA, sequence CCGCAUCUCUGAUCAAUGA, SEQ ID NO: 3 (listed as RNA, chemistry not given here)” as the substance, how does the “T cell mediated lysis of luciferase transfected MCF7 breast cancer target cells (reduction of luciferase activity)” value read?
Its value is “significantly increase”.

What about the “viability of luciferase transfected MCF7 breast cancer cells” value of the same substance?
Its value is “no impact”.

What does the source list for “TAS2R3 siRNA s4: TAS2R3 siRNA, sequence GCAGACAUUUGUAGUGAUG, SEQ ID NO: 4 (listed as RNA, chemistry not given here)”?
T cell mediated lysis of luciferase transfected MCF7 breast cancer target cells (reduction of luciferase activity): significantly increase; viability of luciferase transfected MCF7 breast cancer cells: no impact
